Assay results published in paper PMC5423977, “Safety, pharmacokinetics, and pharmacodynamics of BMS-986142, a novel reversible BTK inhibitor, in healthy participants” (European Journal of Clinical Pharmacology, 2017).

Test: Safety and tolerability (adverse events), Study 1 MAD in healthy participants
Assay type: in vivo, human
[1] = Study 1 MAD group, BMS-986142-treated
[2] = Study 1 MAD, all BMS-986142 doses, n = 24

Cc1c(-c2c(F)cc(C(N)=O)c3[nH]c4c(c23)CC[C@H](C(C)(C)O)C4)cccc1-n1c(=O)c2cccc(F)c2n(C)c1=O [BMS-986142, 6-fluoro-5-(R)-(3-(S)-(8-fluoro-1-methyl-2,4-dioxo-1,2-dihydroquinazolin-3(4H)-yl)-2-methylphenyl)-2-(S)-(2-hydroxypropan-2-yl)-2,3,4,9-tetrahydro-1H-carbazole-8-carboxamide]
AE SOC: Ear and labyrinth disorders (MAD 25 mg QD, n = 6): 0 n (%) | AE SOC: Eye disorders (MAD 25 mg QD, n = 6): 1 (16.7) n (%) | AE SOC: Gastrointestinal Disorders (MAD 25 mg QD, n = 6): 0 n (%) | AE SOC: Infections and infestations (MAD 25 mg QD, n = 6): 0 n (%) | AE SOC: Injury, poisoning and procedural complications (MAD 25 mg QD, n = 6): 1 (16.7) n (%) | AE SOC: Investigations (MAD 25 mg QD, n = 6): 0 n (%) | AE SOC: Musculoskeletal and connective tissue disorders (MAD 25 mg QD, n = 6): 0 n (%) | AE SOC: Nervous system disorders (MAD 25 mg QD, n = 6): 0 n (%) | AE SOC: Psychiatric disorders (MAD 25 mg QD, n = 6): 0 n (%) | AE SOC: Respiratory, thoracic and mediastinal disorders (MAD 25 mg QD, n = 6): 1 (16.7) n (%) | AE SOC: Skin and subcutaneous tissue disorders (MAD 25 mg QD, n = 6): 0 n (%) | AE: Abdominal pain (MAD 25 mg QD, n = 6): 0 n (%) | AE: Back pain (MAD 25 mg QD, n = 6): 0 n (%) | AE: Blood creatinine phosphokinase increased (MAD 25 mg QD, n = 6): 0 n (%) | AE: Cerumen impaction (MAD 25 mg QD, n = 6): 0 n (%) | AE: Cough (MAD 25 mg QD, n = 6): 1 (16.7) n (%) | AE: Diarrhoea (MAD 25 mg QD, n = 6): 0 n (%) | AE: Eye pain (MAD 25 mg QD, n = 6): 1 (16.7) n (%) | AE: Haemoptysis (MAD 25 mg QD, n = 6): 0 n (%) | AE: Headache (MAD 25 mg QD, n = 6): 0 n (%) | AE: Psychotic disorder (MAD 25 mg QD, n = 6): 0 n (%) | AE: Rash (MAD 25 mg QD, n = 6): 0 n (%) | AE: Somnolence (MAD 25 mg QD, n = 6): 0 n (%) | AE: Syncope (MAD 25 mg QD, n = 6): 0 n (%) | AE: Thermal burn (MAD 25 mg QD, n = 6): 1 (16.7) n (%) | AE: Throat irritation (MAD 25 mg QD, n = 6): 0 n (%) | AE: Upper respiratory tract infection (MAD 25 mg QD, n = 6): 0 n (%) | Total subjects with an event (MAD 25 mg QD, n = 6): 2 (33.3) n (%) | AE SOC: Ear and labyrinth disorders (MAD 75 mg QD, n = 6): 1 (16.7) n (%) | AE SOC: Eye disorders (MAD 75 mg QD, n = 6): 0 n (%) | AE SOC: Gastrointestinal Disorders (MAD 75 mg QD, n = 6): 2 (33.3) n (%) | AE SOC: Infections and infestations (MAD 75 mg QD, n = 6): 0 n (%) | AE SOC: Injury, poisoning and procedural complications (MAD 75 mg QD, n = 6): 0 n (%) | AE SOC: Investigations (MAD 75 mg QD, n = 6): 0 n (%) | AE SOC: Musculoskeletal and connective tissue disorders (MAD 75 mg QD, n = 6): 0 n (%) | AE SOC: Nervous system disorders (MAD 75 mg QD, n = 6): 1 (16.7) n (%) | AE SOC: Psychiatric disorders (MAD 75 mg QD, n = 6): 1 (16.7) n (%) | AE SOC: Respiratory, thoracic and mediastinal disorders (MAD 75 mg QD, n = 6): 1 (16.7) n (%) | AE SOC: Skin and subcutaneous tissue disorders (MAD 75 mg QD, n = 6): 0 n (%) | AE: Abdominal pain (MAD 75 mg QD, n = 6): 1 (16.7) n (%) | AE: Back pain (MAD 75 mg QD, n = 6): 0 n (%) | AE: Blood creatinine phosphokinase increased (MAD 75 mg QD, n = 6): 0 n (%) | AE: Cerumen impaction (MAD 75 mg QD, n = 6): 1 (16.7) n (%) | AE: Cough (MAD 75 mg QD, n = 6): 0 n (%) | AE: Diarrhoea (MAD 75 mg QD, n = 6): 1 (16.7) n (%) | AE: Eye pain (MAD 75 mg QD, n = 6): 0 n (%) | AE: Haemoptysis (MAD 75 mg QD, n = 6): 1 (16.7) n (%) | AE: Headache (MAD 75 mg QD, n = 6): 1 (16.7) n (%) | AE: Psychotic disorder (MAD 75 mg QD, n = 6): 1 (16.7) n (%) | AE: Rash (MAD 75 mg QD, n = 6): 0 n (%) | AE: Somnolence (MAD 75 mg QD, n = 6): 0 n (%) | AE: Syncope (MAD 75 mg QD, n = 6): 0 n (%) | AE: Thermal burn (MAD 75 mg QD, n = 6): 0 n (%) | AE: Throat irritation (MAD 75 mg QD, n = 6): 1 (16.7) n (%) | AE: Upper respiratory tract infection (MAD 75 mg QD, n = 6): 0 n (%) | Total subjects with an event (MAD 75 mg QD, n = 6): 4 (66.7) n (%) | AE SOC: Ear and labyrinth disorders (MAD 200 mg QD, n = 6): 0 n (%) | AE SOC: Eye disorders (MAD 200 mg QD, n = 6): 0 n (%) | AE SOC: Gastrointestinal Disorders (MAD 200 mg QD, n = 6): 0 n (%) | AE SOC: Infections and infestations (MAD 200 mg QD, n = 6): 1 (16.7) n (%) | AE SOC: Injury, poisoning and procedural complications (MAD 200 mg QD, n = 6): 0 n (%) | AE SOC: Investigations (MAD 200 mg QD, n = 6): 0 n (%) | AE SOC: Musculoskeletal and connective tissue disorders (MAD 200 mg QD, n = 6): 1 (16.7) n (%) | AE SOC: Nervous system disorders (MAD 200 mg QD, n = 6): 0 n (%) | AE SOC: Psychiatric disorders (MAD 200 mg QD, n = 6): 0 n (%) | AE SOC: Respiratory, thoracic and mediastinal disorders (MAD 200 mg QD, n = 6): 0 n (%) | AE SOC: Skin and subcutaneous tissue disorders (MAD 200 mg QD, n = 6): 0 n (%) | AE: Abdominal pain (MAD 200 mg QD, n = 6): 0 n (%) | AE: Back pain (MAD 200 mg QD, n = 6): 1 (16.7) n (%) | AE: Blood creatinine phosphokinase increased (MAD 200 mg QD, n = 6): 0 n (%) | AE: Cerumen impaction (MAD 200 mg QD, n = 6): 0 n (%) | AE: Cough (MAD 200 mg QD, n = 6): 0 n (%) | AE: Diarrhoea (MAD 200 mg QD, n = 6): 0 n (%) | AE: Eye pain (MAD 200 mg QD, n = 6): 0 n (%) | AE: Haemoptysis (MAD 200 mg QD, n = 6): 0 n (%) | AE: Headache (MAD 200 mg QD, n = 6): 0 n (%) | AE: Psychotic disorder (MAD 200 mg QD, n = 6): 0 n (%) | AE: Rash (MAD 200 mg QD, n = 6): 0 n (%) | AE: Somnolence (MAD 200 mg QD, n = 6): 0 n (%) | AE: Syncope (MAD 200 mg QD, n = 6): 0 n (%) | AE: Thermal burn (MAD 200 mg QD, n = 6): 0 n (%) | AE: Throat irritation (MAD 200 mg QD, n = 6): 0 n (%) | AE: Upper respiratory tract infection (MAD 200 mg QD, n = 6): 1 (16.7) n (%) | Total subjects with an event (MAD 200 mg QD, n = 6): 1 (16.7) n (%) | AE SOC: Ear and labyrinth disorders (MAD 350 mg QD, n = 6): 0 n (%) | AE SOC: Eye disorders (MAD 350 mg QD, n = 6): 0 n (%) | AE SOC: Gastrointestinal Disorders (MAD 350 mg QD, n = 6): 0 n (%) | AE SOC: Infections and infestations (MAD 350 mg QD, n = 6): 0 n (%) | AE SOC: Injury, poisoning and procedural complications (MAD 350 mg QD, n = 6): 0 n (%) | AE SOC: Investigations (MAD 350 mg QD, n = 6): 0 n (%) | AE SOC: Musculoskeletal and connective tissue disorders (MAD 350 mg QD, n = 6): 0 n (%) | AE SOC: Nervous system disorders (MAD 350 mg QD, n = 6): 0 n (%) | AE SOC: Psychiatric disorders (MAD 350 mg QD, n = 6): 0 n (%) | AE SOC: Respiratory, thoracic and mediastinal disorders (MAD 350 mg QD, n = 6): 0 n (%) | AE SOC: Skin and subcutaneous tissue disorders (MAD 350 mg QD, n = 6): 1 (16.7) n (%) | AE: Abdominal pain (MAD 350 mg QD, n = 6): 0 n (%) | AE: Back pain (MAD 350 mg QD, n = 6): 0 n (%) | AE: Blood creatinine phosphokinase increased (MAD 350 mg QD, n = 6): 0 n (%) | AE: Cerumen impaction (MAD 350 mg QD, n = 6): 0 n (%) | AE: Cough (MAD 350 mg QD, n = 6): 0 n (%) | AE: Diarrhoea (MAD 350 mg QD, n = 6): 0 n (%) | AE: Eye pain (MAD 350 mg QD, n = 6): 0 n (%) | AE: Haemoptysis (MAD 350 mg QD, n = 6): 0 n (%) | AE: Headache (MAD 350 mg QD, n = 6): 0 n (%) | AE: Psychotic disorder (MAD 350 mg QD, n = 6): 0 n (%) | AE: Rash (MAD 350 mg QD, n = 6): 1 (16.7) n (%) | AE: Somnolence (MAD 350 mg QD, n = 6): 0 n (%) | AE: Syncope (MAD 350 mg QD, n = 6): 0 n (%) | AE: Thermal burn (MAD 350 mg QD, n = 6): 0 n (%) | AE: Throat irritation (MAD 350 mg QD, n = 6): 0 n (%) | AE: Upper respiratory tract infection (MAD 350 mg QD, n = 6): 0 n (%) | Total subjects with an event (MAD 350 mg QD, n = 6): 1 (16.7) n (%) | AE SOC: Ear and labyrinth disorders (MAD any dose, n = 24): 1 (4.2) n (%) | AE SOC: Eye disorders (MAD any dose, n = 24): 1 (4.2) n (%) | AE SOC: Gastrointestinal Disorders (MAD any dose, n = 24): 2 (8.3) n (%) | AE SOC: Infections and infestations (MAD any dose, n = 24): 1 (4.2) n (%) | AE SOC: Injury, poisoning and procedural complications (MAD any dose, n = 24): 1 (4.2) n (%) | AE SOC: Investigations (MAD any dose, n = 24): 0 n (%) | AE SOC: Musculoskeletal and connective tissue disorders (MAD any dose, n = 24): 1 (4.2) n (%) | AE SOC: Nervous system disorders (MAD any dose, n = 24): 1 (4.2) n (%) | AE SOC: Psychiatric disorders (MAD any dose, n = 24): 1 (4.2) n (%) | AE SOC: Respiratory, thoracic and mediastinal disorders (MAD any dose, n = 24): 2 (8.3) n (%) | AE SOC: Skin and subcutaneous tissue disorders (MAD any dose, n = 24): 1 (4.2) n (%) | AE: Abdominal pain (MAD any dose, n = 24): 1 (4.2) n (%) | AE: Back pain (MAD any dose, n = 24): 1 (4.2) n (%) | AE: Blood creatinine phosphokinase increased (MAD any dose, n = 24): 0 n (%) | AE: Cerumen impaction (MAD any dose, n = 24): 1 (4.2) n (%) | AE: Cough (MAD any dose, n = 24): 1 (4.2) n (%) | AE: Diarrhoea (MAD any dose, n = 24): 1 (4.2) n (%) | AE: Eye pain (MAD any dose, n = 24): 1 (4.2) n (%) | AE: Haemoptysis (MAD any dose, n = 24): 1 (4.2) n (%) | AE: Headache (MAD any dose, n = 24): 1 (4.2) n (%) | AE: Psychotic disorder (MAD any dose, n = 24): 1 (4.2) n (%) | AE: Rash (MAD any dose, n = 24): 1 (4.2) n (%) | AE: Somnolence (MAD any dose, n = 24): 0 n (%) | AE: Syncope (MAD any dose, n = 24): 0 n (%) | AE: Thermal burn (MAD any dose, n = 24): 1 (4.2) n (%) | AE: Throat irritation (MAD any dose, n = 24): 1 (4.2) n (%) | AE: Upper respiratory tract infection (MAD any dose, n = 24): 1 (4.2) n (%) | Total subjects with an event (MAD any dose, n = 24): 8 (33.3) n (%) | Number of AEs reported [1]: 13 AEs | Participants with AEs [1]: 8 participants | AE: Cough [2]: 1 (4.2) n (%) | AE: Diarrhea [2]: 1 (4.2) n (%) | AE: Dizziness [2]: 0 n (%) | AE: Headache/tension headache [2]: 1 (4.2) n (%) | AE: Nausea [2]: 0 n (%) | AE: Thermal burns [2]: 1 (4.2) n (%) | AE: Upper respiratory tract infection [2]: 1 (4.2) n (%) | Subjects with AEs [2]: 8 (33.3) n (%)
